≈ marks a conversion by molar mass, not a printed value. Read-outs that look alike come from different tables or passages of the source.
What was measured:
physchem = settings: 25 °C, pH 7.4, aqueous buffer, kinetic from dmso stock, pH 7.4, 4 h
[1] = Metabolic stability in human liver microsomes; settings: compared with verapamil
TrkB = settings: cited from earlier work
IRK = molecular target: T1, IRK (Homo sapiens, UniProt P06213); assay: BioPrint Profile Panel; type: biochemical; settings: Kinase, read-out: % of specific inhibition
T1 construct: purchased Eurofins Discovery (Cerep) BioPrint Profile Panel
Description: (§1) The BioPrint® Profile Panel service offered by Eurofins Discovery (Poitiers, France) was chosen to perform selectivity analysis.

FLT-1 kinase = molecular target: T2, FLT-1 kinase (Homo sapiens, UniProt P17948); assay: BioPrint Profile Panel; type: biochemical; settings: read-out: % of specific inhibition
T2 construct: purchased Eurofins Discovery (Cerep) BioPrint Profile Panel
Description: as §1

PDE6 = assay: BioPrint Profile Panel; type: biochemical; settings: 10 μM; Non-Kinase Enzyme
Description: as §1

acetylcholinesterase = molecular target: T3, acetylcholinesterase (Homo sapiens, UniProt P22303); assay: BioPrint Profile Panel; type: biochemical; settings: Non-Kinase Enzyme, read-out: % of specific inhibition
T3 construct: purchased Eurofins Discovery (Cerep) BioPrint Profile Panel
Description: as §1

in vivo = type: in vivo, BALB/c mice
Protocol: The animals were obtained from the Center of Experimental Medicine (University of Bialystok, Bialystok, Poland) and housed under standard laboratory conditions. Mice had unlimited access to water and food. All the procedures were conducted according to the guidelines of the local ethical commission (appl no. 06/2019, perm. no 10/2019). […] Four animals per time point were sacrificed at 10 min, 30 min, 1 h, 2 h, and 4 h after per os administration and 5 min, 10 min, 30 min, 1 h, and 2 h after i.v. administration. The blood (0.5 mL) was collected by heart puncture using probes with anticoagulants (K2EDTA). Plasma samples were obtained by blood centrifugation (15 min, 3000× g at 23 °C). The whole brain was dissected from the skull and washed with cold 0.9% NaCl on ice. The left hemisphere was quickly frozen in liquid nitrogen and stored at −80 °C for further bioanalytical analysis. From the right hemisphere, the hippocampus and frontal cortex were isolated, weighed, and stored at −80 °C after freezing in liquid nitrogen. Isolated structures were homogenized in N-PER cocktail (10 μL for every 1 mg of tissue) using a hand homogenizer, and then processed as described in Section 4.3.3.
For bioanalytical evaluation, brain samples were homogenized in water (3 mL for every 1 g of brain tissue). Plasma and brain samples were then prepared by precipitating proteins and extracting analytes using acetonitrile with the addition of the internal standard: 150 μL of extraction solution was added to 50 μL of biological material, mixed for 1 min and centrifuged (12,900 RPM, 4 min, 4 °C), and the supernatant was collected for analysis. Standard solutions including calibration standards and quality control samples were prepared by spiking 45 μL of biological material with 5 μL of standard working solution, adding 150 μL of extraction solution, and then mixing, centrifuging, and collecting the supernatant for analysis. The concentrations of analytes in the plasma and brain samples were determined using a UPLC-MS/MS instrument (Agilent Technologies) and chromatographic columns (Agilent Zorbax Eclipse 50 × 2.1 mm; 1.7 μm).

ERK1/2 and Akt1 = assay: Immunoblot, non-differentiated SH-SY5Y cells; type: cell-based
Protocol: The SH-SY5Y cell line was purchased from MilliporeSigma and cultured in growth medium: MEM (w/Earle’s Salts; w/L-Glutamine) + Ham’s F12 (w/L-Glutamine) (1:1 v/v), 1 × Antibiotic-Antimycotic, 1 × MEM Non-Essential Amino Acids (all reagents from Biowest, Riverside, MO, USA) and 15% FBS (Gibco, Thermo Fisher Scientific, Waltham, MA, USA). Cells were passaged using 0.25% Trypsin-EDTA (Biowest) and cultured in standard conditions (5% CO2, 37 °C with 95% relative humidity).
Compound treatment was stopped by lysing cells with N-PER™ Neuronal Protein Extraction Reagent (Thermo Fisher Scientific) containing 1 × PhosSTOP™ (Roche, Basel, Switzerland), 1 × Halt Protease Inhibitor Single-Use Cocktail (ThermoFisher Scientific) and 5 mM EDTA. The lysates were collected by scraping, and centrifuged (8000× g; 10 min at 4 °C), and the protein concentration was determined using a BCA Pierce kit (ThermoFisher Scientific). The lysates were stored at −80 °C until further processing. […] After repeated washes (TBS-T), the proteins were detected with HRP-conjugated anti-rabbit antibodies (1:4000, RT, 2 h) (Cell Signaling Technology), and the blots were incubated with Clarity Max ECL Western Blotting Substrate (Bio-Rad). Blot images and chemiluminescence signals were captured using a ChemiDoc MP Imaging System, and densitometry values were calculated using the Image Lab software (Bio-Rad). […]

TrkB receptor = molecular target: T4, TrkB receptor (Rattus norvegicus, UniProt Q63604); assay: ELFI TrkB phosphorylation, orthosteric agonist mode, SN56 T48 cell line; type: cell-based; settings: TrkB phosphorylation (Tyr706), 15 min
T4 construct: host or cells: SN56 T48 cell line

[2] = male, BALB/c, mouse, in vivo, po, 50 mg/kg
[3] = no orthosteric activity given as 0

T4 sequence (Q63604 32-821): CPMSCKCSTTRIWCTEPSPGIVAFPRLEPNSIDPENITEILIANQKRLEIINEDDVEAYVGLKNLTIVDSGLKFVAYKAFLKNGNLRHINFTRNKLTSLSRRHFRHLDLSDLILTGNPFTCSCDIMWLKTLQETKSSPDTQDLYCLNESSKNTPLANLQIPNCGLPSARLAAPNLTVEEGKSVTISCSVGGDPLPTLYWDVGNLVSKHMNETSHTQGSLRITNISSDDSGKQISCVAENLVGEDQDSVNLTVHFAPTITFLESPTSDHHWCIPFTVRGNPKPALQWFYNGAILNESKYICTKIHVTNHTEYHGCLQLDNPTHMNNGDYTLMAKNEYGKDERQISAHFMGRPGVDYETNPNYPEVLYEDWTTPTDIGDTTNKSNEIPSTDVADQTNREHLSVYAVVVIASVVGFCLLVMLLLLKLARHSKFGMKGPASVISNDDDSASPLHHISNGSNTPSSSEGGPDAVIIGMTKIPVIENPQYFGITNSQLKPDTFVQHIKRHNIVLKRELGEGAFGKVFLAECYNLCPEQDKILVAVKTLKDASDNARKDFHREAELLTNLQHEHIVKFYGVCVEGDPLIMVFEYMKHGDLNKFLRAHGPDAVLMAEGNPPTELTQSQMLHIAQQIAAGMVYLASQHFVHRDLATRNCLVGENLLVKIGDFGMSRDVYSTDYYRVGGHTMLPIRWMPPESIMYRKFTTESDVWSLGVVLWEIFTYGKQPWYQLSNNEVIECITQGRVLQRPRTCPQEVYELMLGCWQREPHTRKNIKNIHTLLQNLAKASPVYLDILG
T2 sequence (P17948 27-1338): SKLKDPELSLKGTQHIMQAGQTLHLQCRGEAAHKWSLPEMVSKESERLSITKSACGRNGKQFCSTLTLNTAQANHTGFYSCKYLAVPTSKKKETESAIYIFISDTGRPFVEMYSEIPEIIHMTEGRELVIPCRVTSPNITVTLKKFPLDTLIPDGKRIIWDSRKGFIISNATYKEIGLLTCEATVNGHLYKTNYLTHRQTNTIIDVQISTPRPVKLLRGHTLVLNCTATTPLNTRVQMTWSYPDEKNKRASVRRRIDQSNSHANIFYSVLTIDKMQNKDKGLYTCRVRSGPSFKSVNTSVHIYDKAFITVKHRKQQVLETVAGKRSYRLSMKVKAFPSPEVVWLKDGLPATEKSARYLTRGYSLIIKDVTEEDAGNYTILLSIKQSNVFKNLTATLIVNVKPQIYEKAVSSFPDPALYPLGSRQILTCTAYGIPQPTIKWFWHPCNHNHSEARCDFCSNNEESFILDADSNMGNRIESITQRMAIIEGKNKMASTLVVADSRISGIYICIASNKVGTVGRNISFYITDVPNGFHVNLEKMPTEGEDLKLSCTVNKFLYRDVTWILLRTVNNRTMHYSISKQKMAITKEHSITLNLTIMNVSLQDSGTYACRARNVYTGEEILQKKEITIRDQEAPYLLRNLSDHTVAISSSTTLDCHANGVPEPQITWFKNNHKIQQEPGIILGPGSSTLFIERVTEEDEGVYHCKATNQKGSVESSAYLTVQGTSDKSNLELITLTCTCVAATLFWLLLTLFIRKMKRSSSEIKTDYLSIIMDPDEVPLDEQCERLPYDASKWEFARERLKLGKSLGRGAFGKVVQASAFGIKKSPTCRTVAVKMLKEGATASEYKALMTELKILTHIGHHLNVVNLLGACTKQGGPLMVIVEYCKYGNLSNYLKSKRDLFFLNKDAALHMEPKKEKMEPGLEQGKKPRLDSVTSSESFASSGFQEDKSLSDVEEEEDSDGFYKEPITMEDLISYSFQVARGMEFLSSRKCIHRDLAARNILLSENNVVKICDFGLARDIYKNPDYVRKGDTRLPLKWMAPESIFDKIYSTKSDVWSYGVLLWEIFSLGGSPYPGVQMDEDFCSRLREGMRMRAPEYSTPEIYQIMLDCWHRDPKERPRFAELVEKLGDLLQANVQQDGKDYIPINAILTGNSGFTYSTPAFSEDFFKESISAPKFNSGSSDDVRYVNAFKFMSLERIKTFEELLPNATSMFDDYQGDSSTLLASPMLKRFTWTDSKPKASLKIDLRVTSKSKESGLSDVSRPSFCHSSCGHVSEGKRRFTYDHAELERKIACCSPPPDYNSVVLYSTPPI
T3 sequence (P22303 32-614): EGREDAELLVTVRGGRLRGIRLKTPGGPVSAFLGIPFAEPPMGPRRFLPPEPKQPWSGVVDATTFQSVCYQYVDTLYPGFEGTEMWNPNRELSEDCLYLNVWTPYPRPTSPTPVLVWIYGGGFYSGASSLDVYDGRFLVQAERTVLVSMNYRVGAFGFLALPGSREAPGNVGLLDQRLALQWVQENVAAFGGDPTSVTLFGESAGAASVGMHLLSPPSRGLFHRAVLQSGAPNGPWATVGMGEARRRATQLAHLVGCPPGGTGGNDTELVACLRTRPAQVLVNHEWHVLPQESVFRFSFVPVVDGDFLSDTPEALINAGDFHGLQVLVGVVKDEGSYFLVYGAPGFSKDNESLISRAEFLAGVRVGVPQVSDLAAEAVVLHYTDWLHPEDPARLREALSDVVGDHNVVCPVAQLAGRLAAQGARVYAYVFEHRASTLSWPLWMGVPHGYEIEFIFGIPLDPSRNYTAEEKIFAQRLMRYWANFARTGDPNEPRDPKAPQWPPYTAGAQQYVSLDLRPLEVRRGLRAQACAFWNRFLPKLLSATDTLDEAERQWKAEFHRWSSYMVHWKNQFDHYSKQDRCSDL
T1 sequence (P06213 28-1382): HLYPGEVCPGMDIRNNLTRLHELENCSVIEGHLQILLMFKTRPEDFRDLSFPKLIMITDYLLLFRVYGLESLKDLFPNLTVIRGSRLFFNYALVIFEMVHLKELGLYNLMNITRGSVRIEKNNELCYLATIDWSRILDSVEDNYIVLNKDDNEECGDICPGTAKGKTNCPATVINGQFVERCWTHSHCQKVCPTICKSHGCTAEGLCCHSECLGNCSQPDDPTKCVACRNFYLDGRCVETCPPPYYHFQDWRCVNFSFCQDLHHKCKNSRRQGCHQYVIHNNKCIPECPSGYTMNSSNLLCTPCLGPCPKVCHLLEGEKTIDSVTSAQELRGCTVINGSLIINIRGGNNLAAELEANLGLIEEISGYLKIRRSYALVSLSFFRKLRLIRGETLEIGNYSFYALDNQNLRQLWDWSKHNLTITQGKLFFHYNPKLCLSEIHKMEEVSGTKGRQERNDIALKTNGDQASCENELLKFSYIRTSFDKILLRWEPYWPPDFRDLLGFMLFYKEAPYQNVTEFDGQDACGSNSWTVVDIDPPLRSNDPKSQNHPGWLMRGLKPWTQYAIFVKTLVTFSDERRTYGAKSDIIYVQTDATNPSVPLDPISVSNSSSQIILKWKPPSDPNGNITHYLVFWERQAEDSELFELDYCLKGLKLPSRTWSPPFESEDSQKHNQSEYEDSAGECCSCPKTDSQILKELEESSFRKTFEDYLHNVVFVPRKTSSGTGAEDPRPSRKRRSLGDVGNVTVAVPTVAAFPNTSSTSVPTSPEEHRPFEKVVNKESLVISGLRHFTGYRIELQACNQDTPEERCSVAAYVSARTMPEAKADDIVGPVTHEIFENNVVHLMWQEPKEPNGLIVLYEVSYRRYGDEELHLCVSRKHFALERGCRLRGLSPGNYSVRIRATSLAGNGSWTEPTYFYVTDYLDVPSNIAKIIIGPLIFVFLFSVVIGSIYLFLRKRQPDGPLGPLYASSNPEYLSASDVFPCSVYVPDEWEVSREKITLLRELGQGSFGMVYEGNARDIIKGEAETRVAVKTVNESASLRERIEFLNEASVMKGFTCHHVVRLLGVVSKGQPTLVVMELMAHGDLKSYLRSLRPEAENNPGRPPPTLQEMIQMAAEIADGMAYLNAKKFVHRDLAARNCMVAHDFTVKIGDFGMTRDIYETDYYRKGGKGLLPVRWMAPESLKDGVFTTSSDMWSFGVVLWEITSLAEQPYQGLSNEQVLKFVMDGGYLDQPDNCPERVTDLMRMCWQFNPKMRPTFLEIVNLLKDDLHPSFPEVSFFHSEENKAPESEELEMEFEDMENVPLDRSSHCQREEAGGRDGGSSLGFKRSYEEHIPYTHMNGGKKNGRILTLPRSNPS

O=c1cc(-c2ccccc2)oc2c(O)c(O)ccc12 [7,8-DHF, 7,8-dihydroxyflavone]
solubility kinetic at 4 h (physchem): 303 µM (≈ 77 µg/mL)
Metabolic stability in HLM (classification) [1]: moderate degradation rate
Kd (TrkB; ref Jang et al. (2010) [12], read-out: Binding affinity): 15.4 nM
Kd (TrkB; ref Liu et al. (2014) [35], read-out: Binding affinity): 12.1 nM
inhibition at 10 µM (IRK): 12%
inhibition at 10 µM (FLT-1 kinase): 17%
% of specific inhibition (PDE6): 30%
inhibition at 10 µM (acetylcholinesterase): 5%
Detection in plasma or brain samples (in vivo; 7,8-DHF i.v. 1 mg/kg): not detectable
C brain, individual mice (in vivo; 7,8-DHF i.v. 1mg/kg, 5min): < LLQ
C plasma, individual mice (in vivo; 7,8-DHF i.v. 1mg/kg, 5min): < LLQ
C brain, individual mice (in vivo; 7,8-DHF i.v. 1mg/kg, 10 min): < LLQ
C plasma, individual mice (in vivo; 7,8-DHF i.v. 1mg/kg, 10 min): < LLQ
C brain, individual mice (in vivo; 7,8-DHF i.v. 1mg/kg, 30 min): < LLQ
C plasma, individual mice (in vivo; 7,8-DHF i.v. 1mg/kg, 30 min): < LLQ
C brain, individual mice (in vivo; 7,8-DHF i.v. 1mg/kg, 1h): < LLQ
C plasma, individual mice (in vivo; 7,8-DHF i.v. 1mg/kg, 1h): < LLQ
C brain, individual mice (in vivo; 7,8-DHF i.v. 1mg/kg, 2h): < LLQ
C plasma, individual mice (in vivo; 7,8-DHF i.v. 1mg/kg, 2h): < LLQ
C plasma, individual mice (in vivo; 7,8-DHF p.o 50mg/kg, 1h): < LLQ
C brain, individual mice (in vivo; 7,8-DHF p.o 50mg/kg, 4h): < LLQ
C plasma, individual mice (in vivo; 7,8-DHF p.o 50mg/kg, 4h): < LLQ
Brain concentration relative to plasma (in vivo; 7,8-DHF p.o. 50 mg/kg): 10 fold lower
Time at which plasma concentration fell under the detection limit (in vivo; 7,8-DHF p.o. 50 mg/kg): 1 h
AUC (in vivo; [2]): 20.9 ng·h/mL
Time of maximal plasma concentration (in vivo; [2]): 10 min
Tmax (in vivo; [2]): 9.6 min
Cmax (in vivo; male, BALB/c, mouse, in vivo, po, 50 mg/kg, brain, 7,8-DHF p.o. 50 mg/kg, read-out: Cmax): 6.35 ng/g
Cmax (in vivo; male, BALB/c, mouse, in vivo, po, 50 mg/kg, plasma, 7,8-DHF p.o. 50 mg/kg, read-out: Cmax): 77.4 ng/mL
Cmax (in vivo; plasma, 7,8-DHF p.o. 50 mg/kg, 50 mg/kg): 72.42 ng/mL

C=CC(C)(C)c1[nH]c2ccccc2c1C1=C(O)C(=O)C(c2c[nH]c3c(CC=C(C)C)cccc23)=C(O)C1=O [DMAQ-B1]
Phosphorylation of ERK1/2 and Akt1 (ERK1/2 and Akt1): significantly induce
Metabolic stability in HLM (classification) [1]: instability of this compound in the experimental system
EC50 (TrkB receptor; [3]): 5000 nM

B1: BDNF: Brain-derived neurotrophic factor, endogenous TrkB receptor agonist (protein, UniProt P23560 19-247, looked up)
Neurotrophic factor BDNF …: APMKEANIRGQGGLAYPGVRTHGTLESVNGPKAGSRGLTSLADTFEHVIEELLDEDQKVRPNEENNKDADLYTSRVMLSSQVPLEPPLLFLLEEYKNYLDAANMSMRVRRHSDPARRGELSVCDSISEWVTAADKKTAVDMSGGTVTVLEKVPVSKGQLKQYFYETKCNPMGYTKEGCRGIDKRHWNSQCRTTQSYVRALTMDSKKRIGWRFIRIDTSCVCTLTIKRGR
Kd (TrkB; SPR, ref [12],[35], read-out: Kd): 1.7 nM
EC50 (TrkB receptor): 3.7 nM
EC50 (TrkB receptor; [3]): 4 nM
